US20250338842A1, “NOVEL MIXTURES FOR CROP PROTECTION” (Adama Agan LTD., priority 2023, published 2025)

How the values were obtained:
Format in all cases: in vivo
[1] = test system: ECHCG (Echinochloa crus-galli); experiment: Pot trial Flufenacet+Dimethenamid-p+Thiencarbazone, first trial, pre-emergence; details: g a.i./ha: Flufenacet 12.2 (12.5 in mix), TCM 3, DMTP 50
From the text: (§1) A synergistic effect exists whenever the action of an active ingredient combination is greater than the sum of the actions of the individual components. In the field of agriculture, it is often understood that the term “synergy” is as defined by Colby S. R. in an article entitled “Calculation of the synergistic and antagonistic responses of herbicide combinations” published in the journal Weeds, 1967, 15, p. 20-22. The action expected for a given combination of two active components can be calculated according to Colby as follows: […]
(§2) in which E represents the expected effect, e.g. percentage of pest control, for the combination of the active ingredients at defined doses (for example equal to x and y respectively), A is the effect, e.g. percentage of pest control, observed for the first compound or mixture of compounds at a defined dose (equal to x), B is the effect, e.g. percentage of pest control, observed for the second compound or group of compounds at a defined dose (equal to y).
(§3) Here, efficacy or percent inhibition is determined in %. 0% means efficacy that corresponds to the Control, i.e., as if no treatment had been applied. A percent inhibition of 100% means that complete control is observed. When the percent control observed for the combination (E0) is greater than E, there is a synergistic effect. […]

[2] = test system: SETVE (Setaria verticillate); experiment: as above; details: g a.i./ha: Flufenacet 12.2 (12.5 in mix), TCM 3, DMTP 50
From the text: as §1, §2, §3

[3] = test system: ECHCG (Echinochloa crus-galli); experiment: Pot trial Flufenacet+Dimethenamid-p+Thiencarbazone, second trial, post-emergence; details: post-emergence (2-3 leaves), g a.i./ha: Flufenacet 12.2 (12.5 in mix), TCM 3, DMTP 50
From the text: as §1, §2, §3

[4] = test system: AMARE (Amaranthus retroflexus); experiment: Pot trial Flufenacet+Dimethenamid-p+Thiencarbazone, third trial, post-emergence; details: post-emergence (2-3 leaves), g a.i./ha: Flufenacet 75, TCM 18, DMTP 302
From the text: as §1, §2, §3

[5] = test system: CHEAL (Chenopodium album); experiment: as above; details: post-emergence (2-3 leaves), g a.i./ha: Flufenacet 75, TCM 18, DMTP 302
From the text: as §1, §2, §3

[6] = test system: AMARE (Amaranthus retroflexus); experiment: Pot trial Flufenacet+Dimethenamid-p+Mesotrione, post-emergence; details: post-emergence (2-3 leaves), g a.i./ha: Flufenacet 75, MST 60, DMTP 302
From the text: as §1, §2, §3

[7] = test system: ECHCG (Echinochloa crus-galli); experiment: as above; details: post-emergence (2-3 leaves), g a.i./ha: Flufenacet 75, MST 60, DMTP 302
From the text: as §1, §2, §3

[8] = test system: AMAPA (Amaranthus palmeri); experiment: Pot trial Dimethenamid-P+Pethoxamid+Mesotrione, first and second trial, post-emergence
From the text: as §1, §2, §3

[9] = test system: AMAPA (Amaranthus palmeri); experiment: Pot trial Dimethenamid-P+Pethoxamid+Mesotrione, third trial, pre-emergence; details: g a.i./ha: Petoxamid 360, MST 40, DMTP 200
From the text: as §1, §2, §3

[10] = test system: SETVI (Setaria viridis); experiment: Pot trial Dimethenamid-P+Thiencarbazone+Pethoxamid, post-emergence
From the text: as §1, §2
(§4) Here, efficacy or percent inhibition is determined in %. 0% means efficacy that corresponds to the Control, i.e., as if no treatment had been applied. A percent inhibition of 100% means that complete control is observed. When the percent control observed for the combination (E0) is greater than E, there is a synergistic effect. When the percent control observed for the combination (E0) is equal to E, there is an additive effect and wherein the percent control observed for the combination (E0) is lower than E, there is an antagonistic effect.
(§5) First trial: Tank mixes were prepared by combining the formulation with water in order to achieve the desired concentration of each active ingredient, as outlined in Table 19. For this study, individual pots were utilized for sowing the weeds, with each pot containing one weed species, in this case SOLNI (Solanum nigrum) or SETVI (Setaria viridis). Treatments were then applied to each pot at the post-emergence stage of the weeds, ensuring consistent application timing across all treatments. Subsequently, a comprehensive assessment was conducted seven days after application (7DAA) to evaluate the efficacy of each treatment on SOLNI or SETVI.
as §5, with “Second” for “First”, “21.” for “19.”, “Subsequently, a comprehensive assessment was conducted seven days after application (7DAA) to evaluate the efficacy of each treatment on SOLNI or SETVI.” left out

[11] = test system: SOLNI (Solanum nigrum); experiment: as above
From the text: as §1, §2, §4, §5
as §5, with “Second” for “First”, “21.” for “19.”, “Subsequently, a comprehensive assessment was conducted seven days after application (7DAA) to evaluate the efficacy of each treatment on SOLNI or SETVI.” left out

[12] = test system: SOLNI (Solanum nigrum); experiment: Pot trial Dimethenamid-P+Tembotrione+Pethoxamid (Example 6), post-emergence
From the text: as §1, §2, §3

[13] = test system: SETVI (Setaria viridis); experiment: Pot trial Dimethenamid-P+Tembotrione+Pethoxamid (Example 7), post-emergence
From the text: as §1, §2, §3

[14] = test system: AMAPA (Amaranthus palmeri); experiment: Pot trial Dimethenamid-P+S-Metolachlor+Mesotrione, post-emergence
From the text: as §1, §2, §3

[15] = first trial, g a.i./ha: PTX 360, TCM/DMTP 159 (one cell)
[16] = second trial, g a.i./ha: PTX 720, TCM/DMTP 318 (one cell)
[17] = second trial, g a.i./ha: PTX 720, TMB 63, DMTP 604.8

CC(C)N(C(=O)COc1nnc(C(F)(F)F)s1)c1ccc(F)cc1 [Flufenacet]
efficacy 8DAA ECHCG % [1]: 0%
efficacy 8DAA SETVE % [2]: 0%
efficacy 8DAA ECHCG % [3]: 0%
efficacy 8DAA AMARE % [4]: 0%
efficacy 8DAA CHEAL % [5]: 0%
efficacy 8DAA AMARE % [6]: 0%
efficacy 8DAA ECHCG % [7]: 0%

CCOCCN(C(=O)CCl)C(=C(C)C)c1ccccc1 [Pethoxamid]
efficacy 21DAA AMAPA % ([8]; first trial, g a.i./ha: Petoxamid 720, MST 60, DMTP 300): 6.25%
efficacy 21DAA AMAPA % ([8]; second trial, g a.i./ha: Petoxamid 120, MST 20, DMTP 100): 0%
efficacy 21DAA AMAPA % [9]: 52.50%
efficacy 7DAA SETVI % [10, 15]: 2.50%
efficacy 7DAA SETVI % [10, 16]: 0.00%
efficacy 7DAA SOLNI % [11, 15]: 0.00%
efficacy 7DAA SOLNI % [11, 16]: 1.70%
efficacy 7DAA SOLNI % ([12]; first trial, g a.i./ha: PTX 120, TMB 10.5, DMTP 100): 0.00%
efficacy 7DAA SOLNI % [12, 17]: 1.70%
efficacy 7DAA SETVI % ([13]; first trial, g a.i./ha: PTX 360, TMB 10.5, DMTP 100.8): 2.50%
efficacy 7DAA SETVI % [13, 17]: 0.00%

CCc1cccc(C)c1N(C(=O)CCl)[C@@H](C)COC [S-metolachlor]
efficacy 18DAA AMAPA % ([14]; first trial, g a.i./ha: S-MOc 144, MST 20, DMTP 100): 0.00%
efficacy 18DAA AMAPA % ([14]; second trial, g a.i./ha: S-MOc 288, MST 40, DMTP 200): 0.00%
